{
  "source": "patent US20090036400A1",
  "about": "“Pharmaceutical Preparations for Treating the Consequences of Alcohol Abuse, Hepatitis, Pancreatitis, Alzheimer's Disease, Parkinson's Disease, Diabetes, Toxic Kidney Disease, Reperfusion Damage, Arteriosclerosis, and as an Antidote Against Environmental Toxins and Medicinal Intoxication” (priority 2004, published 2009)",
  "note": "Where a name gives a salt, the structure may show the parent alone.",
  "data": [
    {"target": "T1, cytochrome P450 2E1 (Rattus norvegicus, UniProt P05182)", "T1 construct": "from tissue", "T1 sequence (P05182 whole entry)": "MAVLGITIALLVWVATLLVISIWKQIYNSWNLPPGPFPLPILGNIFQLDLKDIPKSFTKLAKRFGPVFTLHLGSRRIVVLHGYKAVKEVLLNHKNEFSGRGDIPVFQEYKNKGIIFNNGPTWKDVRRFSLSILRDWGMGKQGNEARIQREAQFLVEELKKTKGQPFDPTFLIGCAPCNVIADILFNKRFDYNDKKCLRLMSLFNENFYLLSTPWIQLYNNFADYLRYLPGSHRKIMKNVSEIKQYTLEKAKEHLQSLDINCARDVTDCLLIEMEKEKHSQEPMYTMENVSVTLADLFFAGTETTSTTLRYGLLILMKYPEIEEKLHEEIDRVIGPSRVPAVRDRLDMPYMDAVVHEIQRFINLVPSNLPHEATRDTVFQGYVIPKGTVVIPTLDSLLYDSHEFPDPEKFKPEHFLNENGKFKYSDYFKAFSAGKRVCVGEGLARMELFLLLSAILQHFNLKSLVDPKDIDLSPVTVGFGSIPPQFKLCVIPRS", "assay": "p-nitrophenol-hydroxylase activity determination (inhibiting constants)", "assay_type": "biochemical", "settings": "microsomal fraction of acetone-induced Sprague-Dawley rats; substrate p-nitrophenol; read-out: Ki (inhibiting constant)", "experimental": "8 male Sprague-Dawley rats were administered 5% acetone (v-v) in drinking water for 7 days, as described by M. H. Wang et al. in Arch. Biochem. Biophys. […] The preparation of the microsomal fraction is carried out based on the method published by Wang, P., Mason, P. S., Günderlich, F. G., in Arch. Biochem. Biophys.\np-Nitrophenol applies as a specific substrate for cytochrome P450 2E1.", "units": {"Ki": "nM"}, "values": [
      {"smiles": "CCCCCCCCCCCCCCCCOP(=O)([O-])OCC[N+](C)(C)C", "note": "[Hexadecylphosphocholine, reference compound]", "Ki": 600},
      {"smiles": "CCCCCCCCCCCCCCCCC(N)COP(=O)([O-])OCC[N+](C)(C)C", "note": "(racemic) [rac-1-O-phosphocholine-2-amino-octadecane-hydrochloride]", "Ki": 2250},
      {"smiles": "CCCCCCCCCCCCOP(=O)([O-])OCC[N+](C)(C)C", "note": "[Dodecylphosphorylcholine]", "Ki": 450}
    ]}
  ]
}
